According to paper PMC9032385, “A2A Adenosine Receptor Antagonists: Are Triazolotriazine and Purine Scaffolds Interchangeable?” (Molecules, 2022):

Columns and labels:
[1] = target: T1, human recombinant A2AAR (Homo sapiens, UniProt P29274); assay: Radioligand binding at human A2AAR ([3H]NECA displacement, CHO cell membranes); conditions: ratio of Ki values
T1 construct: expressed in transfected cells; membrane preparation
Procedure: Most of the compounds were also evaluated at A2BARs in a functional study using the GloSensor cAMP assay. […] In the case of A2BARs, Ki-values were calculated from IC50-values determined by the inhibition of NECA-stimulated adenylyl cyclase activity.
Preparation of membranes: Cell membranes for binding assays were prepared mechanically detaching the cells from the petri and suspending them in a cold hypotonic buffer (5 mM Tris/HCl, 2 mM EDTA, pH 7.4). The cell suspension was homogenized (Ultra-Turrax, 2 × 15 s at maximum speed) and the homogenate centrifuged for 10 min (4 °C) to 1000× g. […] The amount of the protein suspension was determined according to the […] using the BCA Protein Assay Kit (Pierce), frozen in liquid nitrogen, and stored at −80 °C.
Binding assays: The dissociation constants of the radioligand (KD) were calculated through saturation assays, while the dissociation constants of the compounds under study (Ki) were determined by competition experiments. All binding data were calculated by nonlinear regression curves using the software GraphPad Prism 5 (GraphPad Software, San Diego, CA, USA). The increasing concentrations of the radioligand saturation binding ([^3H]-CCPA for the A1 receptor subtype, [^3H]-NECA for the A2A receptor subtype, and [^3H]-HEMADO for the A3 receptor) subtype were incubated in a total volume of 250 μL containing 0.2 U/mL of Ado deaminase (ADA) and 12 micrograms of membrane proteins in the specific buffer. In competition experiments for the A1 receptor subtype, each compound was added at increasing concentrations, to the well containing 1 nM of [^3H]-CCPA, to a final volume of 200 μL. The samples were left to incubate for 3 h at room temperature, filtered in a filter 96-well plate (UniFilter GF/C, Perkin-Elmer Life and Analytical Science, Boston, MA) using the FilterMate Cell Harvester (Perkin-Elmer), and washed 3 times with cold distilled water. After drying the filter plate at 40 °C for 30′, they 20 μL of scintillating liquid (Microscint-20, Perkin-Elmer) was added to each well, and then the radioactivity was quantized with the MicroBeta2 Plate Counter (Perkin-Elmer). The conditions for binding experiments at A2A and A3 receptor subtypes were essentially the same as for the A1AR using [^3H]-NECA (N-ethylcarboxyamideAdo) at a concentration of 10 nM and [^3H]-HEMADO (2-(1-hexyne)-N^6-methylAdo) at a concentration of 1 nM as radioligands, respectively. The samples were incubated with 12 micrograms of protein for 3 h at room temperature and filtered as described above.
The non-specific binding was determined in the presence of 1 mM theophylline for the A1AR, or 100 µM R-PIA (N^6-(1-methyl-2-phenylethyl)Ado) for the A2A and A3 receptors.

[2] = test system: BV-2 murine microglial cells; assay: RT-PCR expression of inflammatory mediators in LPS-activated BV-2 cells; assay type: cell-based; conditions: 10 nM for 24 h, then 100 ng/mL LPS 24 h
Procedure: BV-2 cells were treated with 13 or ANR 94 (10 nM) and activated with 100 ng/mL LPS for 24 h. Total RNA was isolated, and proinflammatory cytokine and enzyme expressions were measured using RT-PCR (Figure 5).
Cell Cultures and Treatments: BV-2 murine microglial cells (a gift from Prof. Elisabetta Blasi of the University of Modena and Reggio Emilia, Modena, Italy) were maintained at 37 °C and 5% CO2 in a humidified incubator and grown in DMEM supplemented with 10% (v/v) low-endotoxin fetal bovine serum (Euroclone—Milan, Italy), 2 mM L-glutamine, 50 U/mL penicillin, and 50 μg/mL streptomycin (Sigma-Aldrich–Merck, Milan, Italy). Cells were seeded at 50,000 cells/mL in 96-well tissue culture plates for the viability assay, in 6-well tissue culture plates for the Griess assay and RT-PCR assay. BV-2 cells were treated for 24 h with ANR 94 or 13 at different concentrations and then exposed to LPS (100 ng/mL; Sigma-Aldrich–Merck) for a further 24 h.
Real-Time Polymerase Chain Reaction (PCR): At the end of the experiments, total RNA was extracted by BV-2 cells using RNeasy Mini Kit (QIAGEN GmbH, Hilden, Germany). RNA concentraion and quality were measured on a NanoVue Spectrophotometer (GE Healthcare, Milano, Italy). iScript cDNA Synthesis Kit (Bio-Rad, Hercules, CA, USA) was used to synthesize cDNA starting from the extracted RNA, following the supplier’s instructions. PCR was performed by adding 2.5 μL (12.5 ng) of cDNA, 5 μL SsoAdvanced Universal SYBR Green Supermix (Bio-Rad), and 0.5 μL (500 nM) of each primer (Table 2) to a PCR tube. cDNA amplification was started at 95 °C for 30 s to activate the polymerase, followed by 40 cycles of 5 s at 95 °C and 30 s at 60 °C. Normalized expression levels were calculated relative to the control cells according to the 2^−ΔΔCT method.

[3] = target: T2, human recombinant A1AR (Homo sapiens, UniProt P30542); conditions: reference compound ANR 94, reference printed at end of table row; cited from earlier work
T2 construct: expressed in transfected cells; membrane preparation
T2 sequence (P30542 1-326): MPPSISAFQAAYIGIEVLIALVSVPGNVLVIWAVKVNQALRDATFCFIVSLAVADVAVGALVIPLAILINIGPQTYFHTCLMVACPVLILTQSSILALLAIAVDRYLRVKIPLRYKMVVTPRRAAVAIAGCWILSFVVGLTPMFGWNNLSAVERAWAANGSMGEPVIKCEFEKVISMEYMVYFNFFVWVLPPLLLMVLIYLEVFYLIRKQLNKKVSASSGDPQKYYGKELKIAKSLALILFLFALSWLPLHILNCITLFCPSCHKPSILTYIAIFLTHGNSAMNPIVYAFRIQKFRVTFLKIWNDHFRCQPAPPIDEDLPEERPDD

[4] = target: T3, A2BAR (Homo sapiens, UniProt P29275); conditions: reference compound ANR 94, reference printed at end of table row; cited from earlier work
T3 construct: expressed in transfected cells
T3 sequence (P29275 1-332): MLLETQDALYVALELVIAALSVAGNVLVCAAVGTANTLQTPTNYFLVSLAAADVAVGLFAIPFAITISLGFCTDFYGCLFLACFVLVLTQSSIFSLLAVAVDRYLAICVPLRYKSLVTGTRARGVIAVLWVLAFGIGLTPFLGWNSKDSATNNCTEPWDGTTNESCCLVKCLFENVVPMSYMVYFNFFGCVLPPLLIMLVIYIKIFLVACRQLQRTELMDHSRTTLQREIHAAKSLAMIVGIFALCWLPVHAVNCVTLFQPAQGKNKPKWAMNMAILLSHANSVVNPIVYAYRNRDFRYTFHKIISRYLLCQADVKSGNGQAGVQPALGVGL

[5] = target: T4, human recombinant A3AR (Homo sapiens, UniProt P0DMS8); conditions: reference compound ANR 94; cited from earlier work
T4 construct: expressed in transfected cells; membrane preparation
T4 sequence (P0DMS8 1-318): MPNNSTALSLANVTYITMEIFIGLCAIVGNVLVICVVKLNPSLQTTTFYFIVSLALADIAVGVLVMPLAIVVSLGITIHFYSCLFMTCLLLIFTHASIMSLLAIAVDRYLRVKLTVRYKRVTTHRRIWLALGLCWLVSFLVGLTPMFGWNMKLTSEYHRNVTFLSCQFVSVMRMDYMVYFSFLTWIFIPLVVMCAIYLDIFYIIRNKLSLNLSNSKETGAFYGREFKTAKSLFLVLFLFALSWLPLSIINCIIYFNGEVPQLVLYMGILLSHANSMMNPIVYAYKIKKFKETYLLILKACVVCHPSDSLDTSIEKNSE

[6] = test system: catalepsy induced by haloperidol; design: method as in PMID 35184706; conditions: in vivo model of Parkinson's disease; cited from earlier work
[7] = test system: rats sensitized to L-DOPA; design: method as in PMID 35184706; conditions: cited from earlier work
[8] = test system: tremor induced by tacrine; design: method as in PMID 35184706; conditions: cited from earlier work
[9] = test system: neuronal injury model induced by 6-hydroxydopamine; design: method as in PMID 35184706; conditions: cited from earlier work
[10] = test system: murine model of PD; design: method as in PMID 19951715; conditions: cited from earlier work

T1 sequence (P29274 whole entry): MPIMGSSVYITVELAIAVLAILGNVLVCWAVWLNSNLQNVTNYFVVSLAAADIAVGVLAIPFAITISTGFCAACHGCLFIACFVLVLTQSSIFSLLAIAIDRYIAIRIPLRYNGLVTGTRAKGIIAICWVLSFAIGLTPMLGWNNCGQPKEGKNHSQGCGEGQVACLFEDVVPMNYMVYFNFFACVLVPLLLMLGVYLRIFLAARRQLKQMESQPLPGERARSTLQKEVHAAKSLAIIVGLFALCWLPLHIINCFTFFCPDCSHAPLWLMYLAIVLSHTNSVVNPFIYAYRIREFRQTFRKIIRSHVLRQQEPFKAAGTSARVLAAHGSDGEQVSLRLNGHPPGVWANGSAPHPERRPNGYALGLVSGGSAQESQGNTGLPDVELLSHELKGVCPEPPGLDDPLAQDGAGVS

## CCOc1nc2c(N)ncnc2n1CC [ANR 94, 9-ethyl-8-ethoxyadenine]
[1]
  selectivity A1/A2A: 52
  selectivity A2B/A2A: > 652
  selectivity A3/A2A: 457
[2]
  COX-2 mRNA expression vs LPS: only able to significantly reduce the expression of IL-1β
  IL-1β mRNA expression vs LPS: significantly reduce the expression of IL-1β
  IL-6 mRNA expression vs LPS: only able to significantly reduce the expression of IL-1β
  iNOS mRNA expression vs LPS: only able to significantly reduce the expression of IL-1β
[3]
  Ki: 2.4 µM
[4]
  Ki: > 30 µM
[5]
  Ki: 21 µM
[6]
  effect on catalepsy induced by haloperidol: reversed the catalepsy induced by haloperidol
[7]
  contralateral turning behavior: induced contralateral turning behavior
[8]
  intensity of the tremor induced by tacrine: good efficacy in lowering the intensity of the tremor
[9]
  motor deficit: reducing the motor deficit
[10]
  microglia activation: ability to reduce microglia activation
